Measurements published in ChEMBL document CHEMBL1127119, “Pneumocandin antifungal lipopeptides. The phenolic hydroxyl is required for 1,3--glucan synthesis inhibition” (Bioorg Med Chem Lett, 1993).
≈ marks a conversion by molar mass, not a printed value. Numbered stars: 1 amine (or outer) side, 2 acyl side, 3 side chain; on linkers, the order of the positions; unused ones are H or OH. Bridge positions count the residues as written; N and C are the ends. Square brackets hold non-standard residues; d marks the D form. Peptide text beside a SMILES is read from it. * marks the point of attachment. Orn(4R-OH,5R-OH) = O=C([C@H](C[C@@H](O)[C@@H](O)N[*:3])N[*:1])[*:2]; X3 = O=C([C@@H](N[*:1])[C@H](O)[C@@H](O)c1ccc(OP(=O)(O)O)cc1)[*:2]; hTyr(3S-OH,4S-OH) = N[C@H](C(=O)O)[C@H](O)[C@@H](O)c1ccc(O)cc1; X4 = O=C([C@@H](N[*:1])[C@H](O)[C@H](O)c1ccc(O)cc1)[*:2]; X2 = O=C([C@@H](N[*:1])[C@H](O)[C@@H](O)c1ccccc1)[*:2]; X6 = O=C(Oc1ccc(O)cc1)[C@@H](O)[C@H](N[*:1])C(=O)[*:2]; hTyr(3R-OH) = N[C@H](C(=O)O)[C@H](O)Cc1ccc(O)cc1; Gln(3R-OH) = NC(=O)C[C@@H](O)[C@H](N)C(=O)O; X5 = O=C([C@@H](N[*:1])[C@H](O)CO)[*:2]; Pro(3S-OH) = O=C(O)[C@H]1NCC[C@@H]1O; Hyp = O=C(O)[C@@H]1C[C@@H](O)CN1; X1 = CCC(C)CC(C)CCCCCCCCC(=O)*

Columns and labels:
Candida tropicalis = test: The compound was tested for its antifungal activity against Candida tropicalis (MY1012); type: functional
Candida albicans [1] = test: The compound was tested for its antifungal activity against Candida albicans (MY1055); type: functional
Candida albicans [2] = test: The compound was tested for inhibition of 1,3-beta-glucan synthesis in a preparation containing membranes from Candida albicans (MY1208); type: functional
Mus musculus [3] = test: Minimum effective dose required for 99.9% reduction of viable CFUs recoverable from mouse kidneys infected with Candida albicans (MY1208) using in vivo Target Organ Kidney Assay (TOKA); type: functional
Candida parapsilosis = test: The compound was tested for its antifungal activity against Candida parapsilosis (MY1010); type: functional; settings: Lodderomyces parapsilosis
Mus musculus [4] = species on record: Mus musculus; test: Minimum effective dose required for 99.9% reduction of viable CFUs recoverable from mouse kidneys compared with sham-treated controls.; type: functional, Kidney

| SMILES | IC50 (Candida albicans [2]) [µM] | MFC (Candida tropicalis) [µg/mL] | MFC (Candida albicans [1]) [µg/mL] | MED99.9 (Mus musculus [3]) [mg/kg] | MFC (Candida parapsilosis) [µg/mL] | MED99.9 (Mus musculus [4]) [mg/kg] |
| --- | --- | --- | --- | --- | --- | --- |
| CCC(C)CC(C)CCCCCCCCC(=O)N[C@H]1C[C@@H](O)[C@@H](O)NC(=O)[C@@H]2[C@@H](O)CCN2C(=O)[C@H]([C@H](O)CC(N)=O)NC(=O)[C@H]([C@H](O)[C@@H](O)c2ccccc2)NC(=O)[C@@H]2C[C@@H](O)CN2C(=O)[C@H]([C@@H](C)O)NC1=O (stereo partly drawn) (X1-[Orn(4R-OH,5R-OH)]T[Hyp][X2][Gln(3R-OH)][Pro(3S-OH)]; lactam 1-C) | > 10 | 1 (≈ 0.953 µM) | 4 (≈ 3.81 µM) | >6 | > 128 | – |
| CCC(C)CC(C)CCCCCCCCC(=O)N[C@H]1C[C@@H](O)[C@@H](O)NC(=O)[C@@H]2[C@@H](O)CCN2C(=O)[C@H]([C@H](O)CC(N)=O)NC(=O)[C@H]([C@H](O)[C@@H](O)c2ccc(OP(=O)(O)O)cc2)NC(=O)[C@@H]2C[C@@H](O)CN2C(=O)[C@H]([C@@H](C)O)NC1=O (stereo partly drawn) (X1-[Orn(4R-OH,5R-OH)]T[Hyp][X3][Gln(3R-OH)][Pro(3S-OH)]; lactam 1-C) | > 10 | 4 (≈ 3.49 µM) | 2 (≈ 1.75 µM) | 6 | 32 (≈ 27.9 µM) | – |
| CCC(C)CC(C)CCCCCCCCC(=O)N[C@H]1C[C@@H](O)[C@@H](O)NC(=O)[C@@H]2[C@@H](O)CCN2C(=O)[C@H]([C@H](O)CC(N)=O)NC(=O)[C@H]([C@H](O)CO)NC(=O)[C@@H]2C[C@@H](O)CN2C(=O)[C@H]([C@@H](C)O)NC1=O (stereo partly drawn) (X1-[Orn(4R-OH,5R-OH)]T[Hyp][X5][Gln(3R-OH)][Pro(3S-OH)]; lactam 1-C) | > 1 | 8 (≈ 8.22 µM) | 32 (≈ 32.9 µM) | – | 8 (≈ 8.22 µM) | – |
| CCC(C)CC(C)CCCCCCCCC(=O)N[C@H]1C[C@@H](O)[C@@H](O)NC(=O)[C@@H]2[C@@H](O)CCN2C(=O)[C@H]([C@H](O)CC(N)=O)NC(=O)[C@H]([C@H](O)C(=O)Oc2ccc(O)cc2)NC(=O)[C@@H]2C[C@@H](O)CN2C(=O)[C@H]([C@@H](C)O)NC1=O (stereo partly drawn) (X1-[Orn(4R-OH,5R-OH)]T[Hyp][X6][Gln(3R-OH)][Pro(3S-OH)]; lactam 1-C) | > 1 | 8 (≈ 7.41 µM) | 32 (≈ 29.7 µM) | – | 1 (≈ 0.927 µM) | – |

Continued by falling IC50 (Candida albicans [2]), values first:

| IC50 (Candida albicans [2]) [µM] | SMILES | MFC (Candida tropicalis) [µg/mL] | MFC (Candida albicans [1]) [µg/mL] | MED99.9 (Mus musculus [3]) [mg/kg] | MFC (Candida parapsilosis) [µg/mL] | MED99.9 (Mus musculus [4]) [mg/kg] |
| --- | --- | --- | --- | --- | --- | --- |
| 5 | CCC(C)CC(C)CCCCCCCCC(=O)N[C@H]1C[C@@H](O)[C@@H](O)NC(=O)[C@@H]2[C@@H](O)CCN2C(=O)[C@H]([C@H](O)CC(N)=O)NC(=O)[C@H]([C@H](O)[C@H](O)c2ccc(O)cc2)NC(=O)[C@@H]2C[C@@H](O)CN2C(=O)[C@H]([C@@H](C)O)NC1=O (stereo partly drawn) (X1-[Orn(4R-OH,5R-OH)]T[Hyp][X4][Gln(3R-OH)][Pro(3S-OH)]; lactam 1-C) | 64 (≈ 60.1 µM) | 8 (≈ 7.51 µM) | – | > 128 | >6 |
| 0.07 | CCC(C)CC(C)CCCCCCCCC(=O)N[C@H]1C[C@@H](O)[C@@H](O)NC(=O)[C@@H]2[C@@H](O)CCN2C(=O)[C@H]([C@H](O)CC(N)=O)NC(=O)[C@H]([C@H](O)[C@@H](O)c2ccc(O)cc2)NC(=O)[C@@H]2C[C@@H](O)CN2C(=O)[C@H]([C@@H](C)O)NC1=O (stereo partly drawn) (X1-[Orn(4R-OH,5R-OH)]T[Hyp][hTyr(3S-OH,4S-OH)][Gln(3R-OH)][Pro(3S-OH)]; lactam 1-C) | 0.06 (≈ 0.0563 µM) | 0.25 (≈ 0.235 µM) | 6 | 4 (≈ 3.76 µM) | – |
| 0.04 | CCC(C)CC(C)CCCCCCCCC(=O)N[C@H]1C[C@@H](O)[C@@H](O)NC(=O)[C@@H]2[C@@H](O)CCN2C(=O)[C@H]([C@H](O)CC(N)=O)NC(=O)[C@H]([C@H](O)Cc2ccc(O)cc2)NC(=O)[C@@H]2C[C@@H](O)CN2C(=O)[C@H]([C@@H](C)O)NC1=O (stereo partly drawn) (X1-[Orn(4R-OH,5R-OH)]T[Hyp][hTyr(3R-OH)][Gln(3R-OH)][Pro(3S-OH)]; lactam 1-C) | < 0.06 | 0.25 (≈ 0.238 µM) | – | 4 (≈ 3.81 µM) | 3 |
